Experimental findings from a melting point compilation (Tetko et al.; mined from patent text by program, amines drawn as free bases though some values may be those of a salt) are described below.

The structures appear in SMILES notation.

As a reminder, the melting point is the temperature, or range, at which the solid turns liquid. The compound `COc1cccc(CNC(=O)c2[nH]c3ccc(Cl)cc3c2S(=O)(=O)c2nccs2)c1` registered a melting point of 205 to 209 °C.
Next, `COc1ccccc1SCCC(=O)O`: 91 to 91.5 °C.
The result for `NC(=O)C(Cc1ccccc1N1CCCCC1)c1ccc(C(=O)O)cc1` (centres undefined) reads 175 to 177 °C; that for `Cc1cc(C(=O)N2CCOCC2)ncc1C(c1cc(F)ccc1F)S(=O)(=O)c1ccc(F)cc1` (centres undefined), 165 to 167 °C; that for `CC(C)[C@@H](C(=O)NCCCC(c1ccc(F)cc1)c1ccc(F)cc1)N(C)C1CCCCC1`, 82 to 86 °C.
On to `O=C(O)c1ccc(F)nc1F`, for which the melting point lay in the range of 170 to 171 °C.
As to `OC(Cc1ccc(Cl)cc1Cl)(Cn1cnnc1)c1ccc(-c2ccccc2)cc1` (centres undefined), the melting point is 260 °C.
The compound `CCOC(=O)c1c(Cl)c2cccnc2n(C)c1=O` had a melting point of 132 to 135 °C.
Consider `Cc1cc(C#N)cc(C(=O)Nc2cccc(F)c2)n1`, for which the melting point is 139 °C.
Take `N=C(N)SCc1c(Cl)ccc2c1oc1c(CSC(=N)N)c(Cl)ccc12`: the melting point was greater than 220 °C.
The result for `COc1ccc2[nH]c(S(=O)Cc3nccc(N(C)C)c3Cl)nc2c1` (centres undefined) reads 113 to 114 °C; that for `Cn1nc(OCC(=O)c2ccc(F)cc2)c(-c2ccc(F)cc2)c1-c1ccc(S(C)(=O)=O)cc1`, 173 to 176 °C; that for `O=C1CCC(c2ccc(CCCCN3CCN(c4ccc(F)cc4)CC3)cc2)N1` (centres undefined), 136 to 137 °C.
With `COCCN1CC(c2ccccc2)NC1=S` (centres undefined), the melting point was 76 to 78 °C.
In the case of `COC(=O)c1ccccc1-c1nn[nH]n1`, the melting point lay within 132 to 135 °C.
As to `O=CCN1C=C(C(=O)O)Cc2cc(F)c(F)c(F)c21`, the melting point was in the range of 220 to 222 °C.
Take `CCOC(=O)Cc1ccc(NC(=O)Nc2ccccc2OC)cc1`: the melting point fell in the range of 107 to 109 °C.
The result for `CCCCNS(=O)(=O)CC(O)C(O)C(CC1CCCCC1)NC(=O)c1cnccn1` (centres undefined) reads 178 to 180 °C.
Compound `CC1c2cc([Si](C)(C)C)ccc2-c2ccc([Si](C)(C)C)cc21` yielded a melting point of 107 to 108 °C.
Next, `CCOC(=O)C=Cc1cc(N2C(=O)C3C4CC4CN3C2=O)c(F)cc1Cl` (centres undefined): 123 to 124 °C.
On to `CCc1cc(Br)cc2nc3c(=O)[nH][nH]c(=O)c3c(O)c12`, for which the melting point is 208 to 210 °C.
`CCNc1c(C)c(C)c2c(c1C)CC(C)(CN1CCC(c3ccccc3)CC1)O2` (centres undefined) came in with a melting point of 84 to 86 °C.
The result for `N#CCCCCNc1ccc(O)cc1` reads 88 to 90 °C; that for `CNC(=O)Nc1ccc(C2=NNC(=O)CC2C)cn1` (centres undefined), 257 to 259 °C; that for `CCC(C(C)=CC(CNC(=O)c1ccc(N)nc1)=NO)[N+](=O)[O-]` (centres undefined), 190 to 191 °C.
The compound `CC(C)(C)OC(=O)NC1CCN(c2ccc(C(N)=O)cc2)CC1` displayed a melting point greater than 270 °C.
`CCCCCCCCCCCCCCOc1ccc(C(=O)N(CC(=O)OC)CC(=O)OC)cc1OCCCCCCCCCCCCCC` returned a melting point of 70 to 71 °C.
Next, `CN(CCCNC(=O)NCCCCOc1cccc(CN2CCCCC2)c1)CCN(Cc1ccc(F)cc1)c1ccccn1`: 115 °C; `Nc1c2c(nc3ccccc13)-c1ccc(Cl)cc1CC2`: 205 to 208 °C.
With `COC(=O)C=C1NCCOC1=O`, the melting point is 76 to 79 °C.
The result for `Cc1ccc(S(=O)(=O)N2CC3=CC(=O)CC3C2)cc1` (centres undefined) reads 147 to 149 °C; that for `CCOC(=O)/C=C(C)/C=C/C=C(\C)C1=Cc2cc(C)cc(C)c2OC1`, 122 °C; that for `CC(=O)Sc1ccc(I)cc1`, 56 to 57 °C.
In the case of `CCC(C)N1C(=O)c2ccccc2Oc2ncccc21` (centres undefined), the melting point lay in the range of 137 to 138 °C.
Next, `COC(=O)C1=C(C)NC(C)=C(C(=O)OCCN2CCN(C(c3ccc(F)cc3)c3ccc(F)cc3)CC2)C1c1ccccc1[N+](=O)[O-]` (centres undefined): 90 to 93 °C; `CC(=O)NCCCC(=O)OC1c2ccccc2C(=O)N1c1ccc2ccc(Cl)nc2n1` (single isomer, unassigned; (+)): 200 °C; `O=C1CCC(Cc2ccc(Cl)cc2)CN1` (centres undefined): 118 to 120 °C.
`O=[N+]([O-])c1cc(C(F)(F)F)ccc1NCCN1CCN(C(c2ccccc2)c2ccccc2)CC1` came in with a melting point of 152 °C.
The result for `CCc1c(C)nc2c(O)cccn2c1=O` reads 128 °C.
Next, `FC(F)(F)Cn1cc(C#Cc2cccc(OCC3CC3)c2)cn1`: 63 to 65 °C.
In turn, `Cc1ccc(S(=O)(=O)N2[C@@H](C(N)=O)CC[C@H]2c2ccccc2)cc1` (racemic) yielded a melting point of 130 °C.
The result for `Cn1nc(-c2cnc3[nH]cc(C(=O)NC4CCS(=O)(=O)C4)c3n2)c2ccc(Cl)cc21` (centres undefined) reads 383 to 385 °C.
The result for `CCOC(=O)C1=C(CC)NC(CC)=C(C(=O)OCC)C1c1ccccc1/C=C/C(=O)OC(C)(C)C` reads 154 to 155 °C.
`CCC(Cc1c(I)cc(I)c(NC(=O)CNCCNCCN)c1I)C(=O)O` (centres undefined): the melting point was 185 °C.
`CC(=O)O[C@@H]1OCC[C@@H]1NC(=O)[C@H](CC(C)C)NC(=O)[C@H](CC(C)C)NC(=O)OCc1ccccc1`: the melting point is 175 to 176 °C.
`CC(C)(c1cc(F)ccc1O)c1cc(Cl)ccc1O` registered a melting point of 125 °C.
Compound `O=C(CCCCCNC(=O)[C@H](Cc1c[nH]c2ccccc12)NC(=O)Cc1ccc2ccccc2c1)NO` gave a melting point of 112 to 114 °C.
`CCOC(=O)C1=C(C)NC(c2c(F)cc(F)cc2F)=NC1c1ccc(F)cc1Cl` (centres undefined) displayed a melting point of 184 to 186 °C.
In turn, `CC(=O)c1ccc2c(c1)CN(C(=O)C(F)(F)F)CC2` had a melting point of 80 °C.
For `O=c1cc(C=Cc2ccccc2)oc2ccc(O)cc12`, the melting point turned out to be 230 °C.
For `NC(Cc1c[nH]c2c(F)cccc12)C(=O)O` (centres undefined), the melting point fell in the range of 256 to 261 °C.
The result for `COc1ccc(/C(=C/C(=O)N2CCN(C(=O)c3cc(OC)c(OC(C)=O)c(OC)c3)CC2)c2ccccc2Cl)cc1` reads 191 to 194 °C; that for `CN(c1ccc(C(=O)O)cc1)c1cc2c3c(c1)CCCC3CCC2`, 288 to 289 °C; that for `Nc1cc(Oc2ccc(Oc3cc(N)cc(C(F)(F)F)c3)cc2)cc(C(F)(F)F)c1`, 157 to 158 °C.
Consider `CCCCCCCCN=C1SC(=CC(=O)O)C(=O)N1CCCCCCCC`, for which the melting point lay in the range of 57 to 61 °C.
As to `Cc1ccc(S(=O)(=O)Nc2ccc3c(=O)c4c(sc3c2)CC(C)(C)CC4)cc1`, the melting point amounted to 279 °C.
`O=C1CCC(N2Cc3c(OCc4ccc(CN5CCCC5C(F)(F)F)cc4)cccc3C2=O)C(=O)N1` (centres undefined) showed a melting point of 178 to 180 °C.
Turning to `O=C1OC(c2ccccc2)CC(O)=C1SCc1ccccc1` (centres undefined), the melting point lay in the range of 150 to 152 °C.
For the compound `CC(C)CNS(=O)(=O)c1ccccc1CCOS(C)(=O)=O`, the melting point was 106 to 108 °C.
For `O=C(CC(=O)c1ccccc1)Nc1cc(Cl)c(Cl)cc1[N+](=O)[O-]`, the melting point was in the range of 177 to 179 °C.
The result for `CN(C)c1ccc(S(=O)(=O)N2CCCCC2=O)cc1` reads 165 to 170 °C; that for `NC(=O)c1cccc([N+](=O)[O-])c1N`, 238 to 239 °C.
With `O=C(O)Cc1c(Cl)nc(-c2ccccc2)n1Cc1ccccc1F`, the melting point lay within 144 to 146 °C.
Turning to `CCN(CC)c1nc(Cl)c([N+](=O)[O-])s1`, the melting point was 85 °C.
Next, `N#CCCCCCCn1c(-c2ccccc2)c(-c2ccccc2)n(-c2ccccc2)c1=O`: 100 to 101 °C; `CCOC(=O)c1cc(O)n(C)n1`: 151 to 153 °C; `CN(C)C(=O)c1ccccc1Sc1ccc(F)cc1[N+](=O)[O-]`: 56 to 57 °C.
In the case of `COC(=O)CCCCC1C(C(=O)OC)=C(C)NC(C)=C1C(=O)OC`, the melting point lay within 80 to 81 °C.
In the case of `O=C(O)c1cccc(Nc2nc(Oc3ccccc3)nc(Oc3ccccc3Cl)n2)c1`, the melting point is 250 to 252 °C.
Turning to `NS(=O)(=O)Cc1ccc2oc([N+](=O)[O-])c(-c3ccccc3)c2c1`, the melting point fell in the range of 203 to 205 °C.
`CCOC(=O)C(Cc1ccc(S(C)=O)cc1)(NC(C)=O)C(=O)OCC` (centres undefined) registered a melting point of 135 to 136 °C.
Regarding `C/C(=N\O)c1cccc(Nc2c3ccccc3nc3occc23)c1`, the melting point lay in the range of 248 to 249 °C.
The compound `CC(C)(C1CCCCC1)C(NC(=O)c1ccc(Cl)cc1)NC(=N[N+](=O)[O-])Nc1cccnc1` (centres undefined) yielded a melting point of 201 to 203 °C.
`Cc1nc2c(O)c(C(=O)[C@@H]3OC(C)(C)O[C@H]3c3ccccc3)ccc2n1C`: the melting point worked out at 233 °C.
With `COc1ccc(C(=O)Nc2ccccc2)cc1Nc1cccc(C(F)(F)F)c1`, the melting point lay in the range of 183 to 184 °C.
`O=[N+]([O-])c1ccc(C(Nc2ccccc2)P(=O)(Oc2ccccc2)Oc2ccccc2)cc1` (centres undefined) yielded a melting point of 158 to 160 °C.
Compound `Cc1ccc(-c2coc3c(C)c(C)cc(C)c23)nc1` showed a melting point of 134 to 135 °C.
On to `N=C(NCCCOc1cccc2[nH]c3ccccc3c12)c1cccs1`, for which the melting point was 189 to 190 °C.
`CON1CCC(=Cc2cc(C(C)(C)C)c(O)c(C(C)(C)C)c2)C1=O` showed a melting point of 169 °C.
The compound `N#CCC(=O)C(F)(F)C(F)(F)F` came in with a melting point of 47 to 54 °C.
The result for `CCCCCCCCc1ccc2nc(N)nc(N)c2c1C` reads 262 to 264 °C; that for `CCOP(=O)(Cc1ccc(NC(=O)[C@H]2Cc3cc(OC)c(OC)cc3C(=O)CS2)cc1)OCC`, 96 to 98 °C; that for `Nc1c(F)c(N2CCC(n3ccnn3)CC2)c(F)c2c1c(=O)c(C(=O)O)cn2C1CC1`, 274 to 276 °C.
With `Cc1ccc2c(c1)c1cc(C(=O)O)sc1n2C`, the melting point was 216 to 219 °C.
Compound `CCn1cc(C(=O)O)c(=O)c2cc(F)c(N3CCC(CN)C3)c(F)c21` (centres undefined) came in with a melting point of 219 to 221 °C.
Compound `O=c1[nH]c2ccccc2nc1-c1cc(O)c(O)c([N+](=O)[O-])c1` yielded a melting point greater than 300 °C.
`Cc1ccc(C(=O)OC(C)c2nc3c(c(=O)n(C)c(=O)n3C)n2C)cn1` (centres undefined) came in with a melting point of 165 to 180 °C.
The compound `CC(C)c1cc(Oc2c(Cl)cc(C(F)(F)F)cc2Cl)n[nH]1` returned a melting point of 98 to 101 °C.
Consider `O=C(COc1ccc(Cl)cc1Cl)C(=C1SCCCN1Cl)[N+](=O)[O-]`, for which the melting point fell in the range of 103 to 105 °C.
